# Laboratory results reported in a melting point compilation (Tetko et al.; mined from patent text by program, amines drawn as free bases though some values may be those of a salt).
row,Structure (SMILES),melting point [°C]
1,CCCCNc1c(C(C)=O)cnc2onc(C)c12,116 to 117
2,CC1(C)CCC(C)(C)c2cc(-c3cc(-c4ccc(C=O)cc4)ccc3-c3ccccc3)ccc21,120 to 122
3,COc1ccc(C)cc1NC(=O)Nc1ccc(N2CCN(C(=O)Nc3cc(OCCO)ccc3C)CC2)cc1,121 to 124
4,CCOC(=O)Cn1c(=O)c2cc(Cl)ccc2n(Cc2ccc(Cl)cc2)c1=O,137 to 138
5,CC(C)(COCC(C)(C)c1ccc(O)cc1)c1ccc(O)cc1,69.2 to 70
6,CCOC1CC2(C)C(CCC3C4CCC(=O)C4(C)CC(=O)C32)CC1O (stereo not drawn),164 to 167
7,C=CCNC(=O)C(O)C1OC(n2cnc3c(N)ncnc32)C(O)C1O (stereo not drawn),136 to 138
8,N#Cc1ccc(CC=O)cc1,63 to 65
9,COc1ccc2[nH]c(SCc3nccc(SCc4ccco4)c3C)nc2c1,106 to 108
10,CCOC(=O)C(CCC#N)(C(=O)OCC)c1ncc(Br)cc1[N+](=O)[O-],58 to 62
11,COc1ccc(-c2nc(Sc3ccc(C)cc3)n(C3CCCCO3)c2-c2ccc(OC)cc2)cc1 (stereo not drawn),192
12,CC1(C)c2ccccc2C(C)(C)N1O,128 to 130
13,Nc1c[nH]c(=S)n1C1CCc2ccccc2C1 (stereo not drawn),169 to 171
14,Cc1cccc(C#Cc2cccc(C#N)c2)n1,120 to 123
15,CN1CCC(c2c3n(c4ccc(O)cc24)CCC3)CC1,> 250
16,CC(C)C[C@@H]1NC(=O)O[C@H]1CCOS(C)(=O)=O,99 to 100
17,Cc1ccc2c(CC(=O)O)c(C(=O)c3ccc(Cl)cc3)[nH]c2c1,193 to 195
18,COc1c2c(c(OC)c(OC)c1OC)CCC(CCn1ccccc1=O)CC2,84 to 87
19,O=[N+]([O-])c1cccc(NC(=S)NCc2cccnc2)c1,159
20,CNc1cc(NS(=O)(=O)c2ccc(C)cc2)nc(NC)n1,270 to 272
21,O=C1CCC2=C(CCc3c(Cl)cccc32)N1,252 to 253
22,CS(=O)(=O)Nc1ccc(N2CCN(c3ccncc3)CC2)cc1,230 to 232
23,O=C1C=CC2=CN=C(c3ccco3)N3CCC(=C23)N1,278 to 279
24,O=C(Nc1ccc(-n2nc(C3CC3)cc2C2CC2)cc1)c1ccc2nc[nH]c2c1,170 to 176
25,N#CCc1c[nH]c2ccc(CS(N)(=O)=O)cc12,184 to 185

row,Structure (SMILES),melting point [°C]
1,Nc1ccc(S(=O)(=O)NC(=S)NC23CC4CC(CC(C4)C2)C3)cc1,176 to 179
2,CN1C(=O)CC[C@]2(C)c3ccc(C=Cc4ccccc4)cc3CC[C@@H]12,173 to 175
3,O=C(O)Cn1c(=O)c2cc(Cc3ncc[nH]3)ccc2n(Cc2ccc(Cl)c(Cl)c2)c1=O,243 to 244
4,Nc1ccc2c(c1)C(=O)N(CCO)CCO2,138
5,CC(=O)NC(C)(C)Cc1ccc2c(c1)CCC2,130 to 131
6,O=C(O[C@@H]1[C@@H](Br)C[C@]2(O)C[C@H]1OC2=O)c1ccccc1,142 to 143
7,CCCCc1ccc(-c2[nH]c(=O)n(C3CCCCC3)c2C)cc1,236
8,O=C1N(c2cc(Cl)cc(Cl)c2)C(=O)C2(Cc3ccc(-c4nnn[nH]4)cc3)CCCN12 (stereo not drawn),195
9,CC1(C)O[C@@H](CC(=O)O)C[C@@H](C=Cc2ccccc2)O1 (relative stereo),153 to 155
10,O=Cc1ccc(OC2CCCC2)c(Oc2ccc([N+](=O)[O-])cc2Br)c1,92 to 94
11,COc1cc2c(cc1OC)[C@@H]1c3ccc(C)cc3C(=O)N(Cc3ccccc3)[C@H]1CC2 (relative stereo),154 to 157
12,Fc1ccc(-c2n[nH]c(-c3ccncc3)c2-c2ccncc2)cc1,304
13,CCOC(=O)/C=C/c1ccc(N2CCC3(CC2)OCCO3)cc1,115 to 116
14,Cc1nc(NC(=O)c2cnn3c(C(F)(F)F)cc(-c4ccc(C(F)(F)F)cc4)nc23)sc1S(=O)(=O)NC(CO)CO,215
15,CC(=NOCCO)c1cn(C)c(-c2ccccc2)n1,133 to 135
16,CCC1(O)OC(=O)c2ccc(Oc3ccc(C(F)(F)F)cc3Cl)cc21 (stereo not drawn),120 to 122
17,NC(=O)N1C(=O)C(C(=O)c2cc(Cl)cs2)c2nc(Cl)ccc21 (stereo not drawn),> 250
18,COc1ccc(S(=O)(=O)Nc2ccccc2/C=C/c2ccncc2C)cc1,183 to 185
19,O=C(O)Cc1cc(Br)c2c(c1)CCC(C(F)(F)F)N2 (stereo not drawn),111 to 112
20,CCCc1c(C(=O)C(C)C)c2ccc(C(N)=O)cc2n1Cc1ccccc1OC,174 to 175
21,NC(=O)c1cc([N+](=O)[O-])c(Cl)cc1N1CC1,155
22,CCOC(=O)c1cnc2c3cc(NC(=O)CC(C)(C)C)ccc3ncn2c1=O,253 to 254
23,COC(=O)c1cc(C(=O)N2CCCC(=O)C2)c2cc(Cc3ccc(F)cc3)cnc2c1O,228 to 229
24,CCOCCOc1ccc(CCNC(=O)/C=C/c2cccs2)cc1S(=O)(=O)NC(=O)NC,65
25,Cc1c(C(=O)N(C)c2ccccc2)nc2n1CCc1ccccc1C2OC1CCN(C)CC1 (stereo not drawn),75

row,Structure (SMILES),melting point [°C]
1,CCOCCn1cc(C2CCN(CCOc3ccccc3C(=O)O)CC2)c2cccnc21,137 to 140
2,CC(=O)Oc1ccc2cccc(OS(=O)(=O)C(F)(F)F)c2n1,90
3,CCCCc1nn(-c2cc(NC(=O)CC)ccc2Br)c(=O)n1Cc1ccc(-c2ccccc2S(=O)(=O)NC(=O)OC(C)(C)C)cc1F,123 to 126
4,COc1nc(N)c(Cl)cc1C(=O)CCC1CCN(CC(C)C)CC1,128
5,O=[N+]([O-])c1cc(CC(O)(Cn2cncn2)Cn2cncn2)ccc1Cl,136 to 137
6,O=C(O)c1csnc1-c1ccc(Cl)c(Cl)c1,247 to 248
7,Cn1cc2c(=O)n(-c3ccc(Cl)cc3)nc-2c2ccccc21,322 to 323
8,Fc1ccc(Cn2c(NC3CCN(CCc4cn5ccsc5n4)CC3)nc3ccccc32)cc1,223
9,CC(C)C(=O)Nc1nc(Cl)c([N+](=O)[O-])c(Cl)n1,166 to 169
10,O=c1[nH]nc(Cc2ccncc2)c2c1CCCC2,193 to 194
11,CCc1c(CC(O)N2CCN(c3cc(C)ccn3)CC2)c2cccc3c2n1CCC3 (stereo not drawn),60
12,CC12CCC(=O)C([N+](=O)[O-])=C1CCC1C2CCC2(C)C(O)CCC12 (stereo not drawn),158 to 160
13,COc1ccc(Cl)cc1N1C(=O)NC(=O)C1c1ccccc1 (stereo not drawn),200
14,O=C1C(Cc2ccccc2)NC(=S)N1c1nc2ccc(F)cc2s1 (stereo not drawn),223 to 224
15,COc1ccc(NC(=S)C2CC2)cn1,79 to 83
16,Cc1snc(O)c1C#N,205
17,CC(=O)n1nc(CBr)c(Oc2cc(Cl)cc(C#N)c2)c1C,122 to 123
18,COc1cc(C=C2SC(=O)NC2=O)ccc1OCCN1c2ccccc2Sc2ccccc21,210 to 212
19,O=C(CCCc1ccccc1)N(O)Cc1ccccc1,72 to 74
20,O=c1c2ccccc2sc2cc(OCC(O)CCl)cc(O)c12 (stereo not drawn),151
21,CSc1nccc(-c2c3cccnc3n3c(NC(C)=O)nccc23)n1,160 to 162
22,COC(=O)C(C#N)c1c[nH]c2ccc(OC)cc12 (stereo not drawn),98 to 100
23,CCC(=O)N(C(=O)CC)c1cc2c(cc1C)N(C(=O)CC)c1ccc(N(C)C)cc1N2C(=O)CC,198 to 199
